# Like-named read-outs stand apart in the source and are kept apart here.
# Legend:
# [1] = tested on: HCT116 (ARID1A−/−) cell line; assay: Synergy viability assay, HCT116 ARID1A(-/-); type: cell-based, human; settings: for average combination index (CI) of TOP2 inhibitor: with VE-821, ARID1A(−/−), 5 days
# Excerpt: (§1) SMARCA4, the primary target of our original screen, is present in both human BAF and PBAF complexes in cancer^12. PBAF complexes differ from BAF complexes by incorporation of specific subunits. Specifically, PBAF complexes contain ARID2 (as opposed to ARID1A/B), PHF10 (BAF45a) (as opposed to […] (BAF45d)), PBRM1, and lack the BAF-specific subunit SS18. PBAF specific subunits are also frequently mutated in cancer, specifically renal clear cell carcinomas and cholangiocarcinomas^33-36. To assess whether the lead compound is targeting BAF, PBAF complexes, or both, we constitutively knocked down ARID1A or ARID2 by lentiviral transduction of HCT116 cells and compared the BAFi/ATRi synergy to the wild-type (ARID1A+/+).
# Isogenic HCT116 ARID1A(+/+) and ARID1A(−/−) cell lines were originally obtained from Horizon Discovery. MCF-7, Cal-51, A-704, and MDA-MB-436, MDA-MB-468, HCC1143, HCC1187, HCC1954, and ACHN cell lines were obtained from American Type […]. All cell lines were grown in McCoy's 5a Media supplemented with 10% FBS.
# (§2) Viability assays were performed in 384-well plates. Cells were plated at 500 cells/well. Each drug was administered in 5-doses with 4 replicates per plate, and each 5×5 drug combination was administered with 8 replicates per plate, 24 hours after seeding. All error bars represent 4 or 8 technical replicates averaged over 3 independent experiments. Media containing fresh drug was replaced every 48 hours. After 5 days, cellular viability was measured using CellTitre blue, as described by the manufacturer.
# HCT116 cells [2] = assay: Synergy viability assay (CellTitre blue, 5 days), HCT116 ARID1A(+/+); type: cell-based, human; settings: for average combination index (CI) of TOP2 inhibitor: with VE-821, ARID1A(+/+); for average combination index (CI) of TOP2 inhibitor / IC50 / average combination index (CI) of putative inhibitor: 5 days; for IC50: Homo sapiens, HCT-116, 120 h, read-out: VE-821 IC50 in combination with BAFi; for average combination index (CI) of putative inhibitor: with VE-821 (1-30 uM) and putative inhibitor (1-30 uM)
# Protocol: To assess drug synergy, the Chou-Talalay method was employed to provide a mechanism-independent method to quantify the synergism of drug interactions. This method combines elements of the Scatchard, Michaelis-menten, Hill, and Henderson-Hasslebalch equations through the law of mass-action^31,32 to generate a quantifiable assessment of synergy. Molecules were tested both independently and then in 25 different combinations in HCT116 cells for 5 days as described above. To determine a combination index (CI), median-effect equations of the two respective molecules were determined from their respective dose responses. The median-effect equation was used to calculate a median-effect dose, and (Dx)ATRi,BAFi values which correspond for the respective doses of the BAFi and ATRi compounds and correlate with a given percentage of cells affected by the individual treatments. Normalized index values (IATRi, IBAFi), and the combination index are a ratio between the treatment dose, and the Dx for a given fraction of affected cells. Combination indices less than 0.9 are considered synergistic, while values ranging from 0.9 to 1.1 are additive, and CIs above 1.1 are antagonistic.
# as §2
# [3] = tested on: HCT116 cells infected with shRNA lentivirus targeting ARID1A; assay: Synergy viability assay, HCT116 with shARID1A knockdown; type: cell-based, human; settings: single agent, 5 continuous days
# Excerpt: as §1, with “(ARID1A+/+). […] Further, upon knockdown of ARID1A or ARID2 (FIG. 3b), the synergistic effect observed between Baficillin1 and VE-821 was ablated upon loss of ARID1A (FIG. 3e) (CIshARID1A=1.48±0.14), but not loss of shARID2 (CIshARID2=0.42±0.04) (FIG. 3c-e).” for “(ARID1A+/+).”
# as §2
# Lentiviruses were produced in Lenti-X 293T cells (Clonetech) via spinfection with polyethylenimine transfection. 293T-x cells were transfected with PEI (Polysciences Inc., 24765) with lentiviral PLKO shARID1A or GIPZ shARID2 knockdown vectors, co-transfected with packaging vectors pspax2 and pMD2.G as previously described^49. PLKO shRNA construct targeting ARID1A (TRCN0000059090: shRNA-2) was obtained^50 and GIPZ Human ARID2 shRNA was purchased from Dharmacon (CloneId:V2LHS_74399). […]
# HCT116 cells [4] = settings: 5 days of treatment, before ARID1A deletion, read-out: IC50 of VE-821; cited from earlier work
# [5] = tested on: HCT116 cells, ARID1A deleted; settings: HCT116 cells upon deletion of ARID1A, 5 days of treatment; read-out: IC50 of VE-821; cited from earlier work
compound,measurement,setting,value
ICRF-193,average combination index (CI) of TOP2 inhibitor,[1],0.82±0.08
same,average combination index (CI) of TOP2 inhibitor,HCT116 cells [2],1.0±0.05
CC(Oc1ccc(Oc2cnc3ccc(Cl)cc3n2)cc1)C(=O)O (stereo not shown) [XK469],average combination index (CI) of TOP2 inhibitor,[1],0.85±0.09
same,average combination index (CI) of TOP2 inhibitor,HCT116 cells [2],0.75±0.05
CS(=O)(=O)c1ccc(-c2cnc(N)c(C(=O)Nc3ccccc3)n2)cc1 [VE-821],sensitivity (cell survival) compared to wild-type HCT116,[3],increased sensitivity
same,sensitivity (cell survival) compared to wild-type HCT116,"[1]; single agent, 5 continuous days",increased sensitivity
same,IC50,HCT116 cells [4],~10000 nM
same,IC50,HCT116 cells [2]; highest dose of BAFi (Baficillin1) tested in combination,~1000 nM
same,IC50,HCT116 cells [2]; lowest dose of BAFi (Baficillin1) 1.25 uM,~4000 nM
same,IC50,[5],~1000 nM
"CCc1nc(N)nc(N)c1-c1ccc(Cl)cc1 [Chloroidine, Pyrimethamine]",average combination index (CI) of putative inhibitor,HCT116 cells [2],1.3±0.18
COc1ccc2c(C)nc(Nc3nc(C)c(C)c(=O)[nH]3)nc2c1 [Madrasin],average combination index (CI) of putative inhibitor,HCT116 cells [2],1.4±0.04
COc1cccc2c1C(=O)c1c(O)c3c(c(O)c1C2=O)C[C@@](O)(C(=O)CO)C[C@@H]3O[C@H]1C[C@H](N)[C@H](O)[C@H](C)O1 [Doxorubicin],average combination index (CI) of TOP2 inhibitor,[1],0.95±0.06
same,average combination index (CI) of TOP2 inhibitor,HCT116 cells [2],0.87±0.07
O=C(/C=C/N1C[C@H]2C[C@@H]1CN2c1ccccn1)c1ccccc1O [PFI-3],individual dose-response or synergy with VE-821,[1]; ARID1A(−/−) condition,no measurable individual dose-response or synergy effects
same,individual dose-response or synergy with VE-821,"HCT116 cells [2]; ARID1A(+/+) condition, as treated in FIG. 4c",no measurable individual dose-response or synergy effects

# From patent US11267809B2, “BAF complex modulating compounds and methods of using the same” (THE BOARD OF TRUSTEES OF THE LELAND STANFORD JUNIOR …, priority 2017, dated 2022)
